What was measured:
Male Sprague Dawley rats [1] = test: Photo-oxidative (blue-light) induced retinopathy, systemic IP dosing, ERG; conditions: for Protection of retina function against light-induced retinal degeneration: 20 and 40 mg/kg IP; for Persistence of protection after a 4-week recovery period: IP dosing
Source text: The purpose of Experiment 1 was to determine if selective β-adrenoceptor antagonists, in particular betaxolol (racemic), levobetaxolol (S-isomer), and betaxolol (R-isomer) are neuroprotective and can rescue retinal cells from a photo-oxidative induced retinopathy. The purpose of Experiment 2 was to determine the dose-dependent efficacy of timolol, a potent non-selective β1- and β2-blocker, in this photo-oxidative stress model. Male Sprague Dawley rats were randomly assigned to drug or vehicle experimental groups. Rats received three intraperitoneal (IP) injections of either vehicle or drug at 48, 24, and 0 hours prior to a 6-hour light exposure to spectrally filtered blue light (˜220 fc). Control rats were housed in their home cage under normal cyclic light exposure. Control rats were not dosed with either vehicle or drug. The ERG is a non-invasive clinical measurement of the electrical response of the eye to a flash of light. The a-wave and b-wave are two components of the ERG that are diagnostic of retinal function. The a-wave reflects outer retina function and is generated by interactions between photoreceptor and RPE while the b-wave reflects inner retina function, particularly on-bipolar cells. […] Changes in the a-wave amplitude or latency are diagnostic of outer retina pathology. The ERG was recorded after a five day recovery period from dark-adapted anesthetized rats (ketamine-HCl, 75 mg/Kg; xylazine, 6 mg/Kg). The eye's electrical response to a flash of light was elicited by viewing a ganzfeld. ERGs to a series of light flashes increasing in intensity were digitized to analyze temporal characteristics of the waveform and response voltage-log intensity relationship.

Male Sprague Dawley rats [2] = conditions: 0.5% topical ocular b.i.d.; for Protection of retinal function compared to vehicle dosed rats: two drops per eye, 17 days before and 2 days after light exposure, ERG five days after
Description: The purpose of this experiment was to determine the degree of retinal protection that could be measured in rats following topical ocular dosing. Levobetaxolol (0.5%), (racemic) betaxolol (0.5%), and vehicle were evaluated in the photic retinopathy model. Induction of photochemical lesions and evaluation of retinal function with the ERG were performed as described in the photo-oxidative induced retinopathy paradigm used in Example 1.
Male Sprague Dawley rats were randomly assigned to either a vehicle dosed group (N=10), (racemic) betaxolol (0.5%) dosed group (N=10) or levobetaxolol (0.5%) dosed group (N=10). Rats were dosed topical ocular (b.i.d.) with two drops per eye. Rats were pre-dosed for 17 days prior to light exposure and dosed an additional two days after the light exposure. Control rats (N=4) were housed in their home cage under normal cyclic light exposure.

[3] = tested on: rat ischemia/reperfusion injury model; conditions: literature; cited from earlier work
chick retinal cells = conditions: in vitro; literature; cited from earlier work
rabbit inner retina = conditions: in vitro; literature; cited from earlier work
cortical cultures = conditions: in vitro; literature; cited from earlier work
[4] = Light damage paradigms: prevention of light-induced functional or morphological changes; assay type: in vivo; conditions: applicant's light damage paradigms
bFGF mRNA = test: Retinal bFGF mRNA upregulation, Northern blot after single IP injection; conditions: single IP injection 20 mg/kg; retina harvested after 12 hours in the dark; bFGF/18S
CNTF mRNA = test: Retinal CNTF mRNA upregulation, Northern blot after single IP injection; conditions: single IP injection 20 mg/kg; retina harvested after 12 hours in the dark; CNTF/18S
[5] = tested on: P23H mutant rhodopsin transgenic rats
Description: The P23H rhodopsin mutated transgenic rat has a specific rhodopsin mutation that has been identified in subsets of patients with RP. This degeneration is characterized by a slow degeneration of retinal photoreceptors and marked reduction in the electroretinogram. As in light damage, photoreceptor loss is primarily through an apoptotic process.
At the time of weaning, rats are randomly assigned to either a drug or vehicle group. Rats were dosed (oral gavage) with vehicle or levobetaxolol (40 mg/kg,) every other day. […] ERGs were recorded as described in Example 1.

CC(C)NCC(O)COc1ccc(CCOCC2CC2)cc1 (racemic) [betaxolol (racemic), betaxolol]
Maximum a-wave response amplitude, fold higher than vehicle dosed rats (Male Sprague Dawley rats [1]; 20 mg/kg IP at 48, 24, 0 h before 6-hour blue light, 5-day recovery): 1.9 fold
Maximum a-wave response amplitude, fold higher than vehicle dosed rats (Male Sprague Dawley rats [1]; 40 mg/kg IP at 48, 24, 0 h before 6-hour blue light, 5-day recovery): 2.1 fold
Protection of retina function against light-induced retinal degeneration (Male Sprague Dawley rats [1]; 5-day recovery): dose-dependent protection
ERG response amplitudes vs vehicle dosed rats (Male Sprague Dawley rats [2]): higher but not significantly different
Protection of retinal function compared to vehicle dosed rats (Male Sprague Dawley rats [2]): No significant protection
ERG b-wave deficit after ischemia/reperfusion [3]: protected
Kainate induced elevation of intracellular calcium (chick retinal cells): prevent
Changes in GABA immunoreactivity following glucose-oxygen deprivation (rabbit inner retina): partially inhibited
Glutamate-induced release of lactate dehydrogenase (cortical cultures): partially prevented

CC(C)NCC(O)COc1ccc(CCOCC2CC2)cc1 (stereo not drawn) [Betaxolol (R-isomer), betaxolol]
Protection of retina function against light-induced retinal degeneration (Male Sprague Dawley rats [1]; 5-day recovery): Partial but significant protection
ERGs, % of normal (Male Sprague Dawley rats [1]; 20 or 40 mg/kg IP): approximately 64%
Persistence of protection after a 4-week recovery period (Male Sprague Dawley rats [1]): persisted

Cc1c(C)c2c(c(C)c1O)CC[C@@](C)(CCC[C@H](C)CCC[C@H](C)CCCC(C)C)O2 [alpha-tocopherol]
Effectiveness in preventing light-induced functional or morphological changes [4]: ineffective

Brc1c(NC2=NCCN2)ccc2nccnc12 [brimonidine]
Increase in bFGF mRNA expression (bFGF mRNA): 14 fold
CNTF mRNA expression upregulation, factor compared to background expression (CNTF mRNA): not upregulated

Fc1ccc(C(c2ccc(F)cc2)N2CCN(C/C=C/c3ccccc3)CC2)cc1 [flunarizine]
Effectiveness in preventing light-induced functional or morphological changes [4]: moderately effective

CC(C)NC[C@H](O)COc1ccc(CCOCC2CC2)cc1 [levobetaxolol]
ERG amplitude relative to vehicle-dosed rats (Male Sprague Dawley rats [1]; 20 mg/kg IP, 5-day recovery): twice
ERG amplitudes, % of normal (Male Sprague Dawley rats [1]; 20 mg/kg IP, 5-day recovery): 69%
Protection of the retinal response to a flash of light (Male Sprague Dawley rats [1]; 40 mg/kg IP, 5-day recovery): Complete protection
Protection of retina function against light-induced retinal degeneration (Male Sprague Dawley rats [1]; 5-day recovery): significant protection
Persistence of protection after a 4-week recovery period (Male Sprague Dawley rats [1]): persisted
Amelioration of photic induced retinopathy (retinal function vs control rats) (Male Sprague Dawley rats [2]): completely to ameliorated
Protection of retinal function compared to vehicle dosed rats (Male Sprague Dawley rats [2]): significant protection
Outer retinal function, % better than vehicle dosed rats ([5]; 40 mg/kg oral every other day, 6-month old rats): 32%
Loss of retinal function compared to vehicle dosed rats ([5]; 40 mg/kg oral gavage every other day, 3- and 6-month old rats): significantly attenuated
Increase in bFGF mRNA expression (bFGF mRNA): 13 fold
CNTF mRNA expression upregulation, factor compared to background expression (CNTF mRNA): 2.3

COCCOC(=O)C1=C(C)NC(C)=C(C(=O)OC(C)C)C1c1cccc([N+](=O)[O-])c1 (stereo not shown) [nimodipine]
Effectiveness in preventing light-induced functional or morphological changes [4]: no effect

Reference: patent publication US8710102B2, “Use of beta-adrenoceptor antagonists for the manufacture of a medicament of the treatment of disorders of the outer retina” (Novartis AG, priority 1999, dated 2014)
